According to patent US10131652B2, “Pyrimidinyloxy benzene derivatives as herbicides” (E. I. DU PONT DE NEMOURS AND COMPANY, priority 2014, dated 2018):

How the values were obtained:
Assay in all cases: Test D pre-/postemergence plant response
Type in all cases: in vivo
[1] = system: galium (catchweed bedstraw, Galium aparine); conditions: Postemergence; for Galium plant response rating: scale 0 to 100 (0 no effect, 100 complete control); for Plant response rating, Galium: scale 0 to 100, 0 no effect, 100 complete control
Summary of the method: (§1)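 Preemergence: seeds in loam/sand blend treated with test chemicals in non-phytotoxic solvent with surfactant; postemergence: plants at 2–18 cm (1- to 4-leaf stage) in peat-based medium sprayed likewise. Greenhouse 13 to 15 days, then visual rating vs controls, 0 (no effect) to 100 (complete control).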

[2] = system: oilseed rape (Brassica napus); conditions: Postemergence; for Oilseed Rape plant response rating: scale 0 to 100 (0 no effect, 100 complete control); for Plant response rating, Oilseed Rape: scale 0 to 100, 0 no effect, 100 complete control
Summary of the method: as §1

[3] = system: waterhemp (common waterhemp, Amaranthus rudis); conditions: Postemergence; for Waterhemp plant response rating: scale 0 to 100 (0 no effect, 100 complete control); for Plant response rating, Waterhemp: scale 0 to 100, 0 no effect, 100 complete control
Summary of the method: as §1

[4] = system: large (Lg) crabgrass (Digitaria sanguinalis); conditions: Postemergence; for Crabgrass, Large plant response rating: scale 0 to 100 (0 no effect, 100 complete control); for Plant response rating, Crabgrass, Large: scale 0 to 100, 0 no effect, 100 complete control
Summary of the method: as §1

[5] = system: pigweed (Amaranthus retroflexus); conditions: Postemergence; for Pigweed plant response rating: scale 0 to 100 (0 no effect, 100 complete control); for Plant response rating, Pigweed: scale 0 to 100, 0 no effect, 100 complete control
Summary of the method: as §1

[6] = system: morningglory (Ipomoea coccinea); conditions: Postemergence; for Morningglory plant response rating: scale 0 to 100 (0 no effect, 100 complete control); for Plant response rating, Morningglory: scale 0 to 100, 0 no effect, 100 complete control
Summary of the method: as §1

[7] = system: yellow nutsedge (Cyperus esculentus); conditions: Postemergence; for Nutsedge, Yellow plant response rating: scale 0 to 100 (0 no effect, 100 complete control); for Plant response rating, Nutsedge, Yellow: scale 0 to 100, 0 no effect, 100 complete control
Summary of the method: as §1

[8] = system: ragweed (common ragweed, Ambrosia elatior); conditions: Postemergence; for Ragweed plant response rating: scale 0 to 100 (0 no effect, 100 complete control); for Plant response rating, Ragweed: scale 0 to 100, 0 no effect, 100 complete control
Summary of the method: as §1

[9] = system: winter wheat (Triticum aestivum); conditions: Postemergence; for Wheat plant response rating: scale 0 to 100 (0 no effect, 100 complete control); for Plant response rating, Wheat: scale 0 to 100, 0 no effect, 100 complete control
Summary of the method: as §1

[10] = system: corn (Zea mays); conditions: Postemergence; for Corn plant response rating: scale 0 to 100 (0 no effect, 100 complete control); for Plant response rating, Corn: scale 0 to 100, 0 no effect, 100 complete control
Summary of the method: as §1

[11] = system: lambsquarters (Chenopodium album); conditions: Postemergence; for Lambsquarters plant response rating: scale 0 to 100 (0 no effect, 100 complete control); for Plant response rating, Lambsquarters: scale 0 to 100, 0 no effect, 100 complete control
Summary of the method: as §1

[12] = system: johnsongrass (Sorghum halepense); conditions: Postemergence; for Johnsongrass plant response rating: scale 0 to 100 (0 no effect, 100 complete control)
Summary of the method: as §1

[13] = system: soybean (Glycine max); conditions: Postemergence; for Soybean plant response rating: scale 0 to 100 (0 no effect, 100 complete control); for Plant response rating, Soybean: scale 0 to 100, 0 no effect, 100 complete control
Summary of the method: as §1

[14] = system: barnyardgrass (Echinochloa crus-galli); conditions: Postemergence; for Barnyardgrass plant response rating: scale 0 to 100 (0 no effect, 100 complete control); for Plant response rating, Barnyardgrass: scale 0 to 100, 0 no effect, 100 complete control
Summary of the method: as §1

[15] = system: Italian ryegrass (Lolium multiflorum); conditions: Postemergence; for Ryegrass, Italian plant response rating: scale 0 to 100 (0 no effect, 100 complete control); for Plant response rating, Ryegrass, Italian: scale 0 to 100, 0 no effect, 100 complete control
Summary of the method: as §1

[16] = system: blackgrass (Alopecurus myosuroides); conditions: Postemergence; for Blackgrass plant response rating: scale 0 to 100 (0 no effect, 100 complete control); for Plant response rating, Blackgrass: scale 0 to 100, 0 no effect, 100 complete control
Summary of the method: as §1

[17] = system: giant foxtail (Setaria faberii); conditions: Postemergence; for Foxtail, Giant plant response rating: scale 0 to 100 (0 no effect, 100 complete control); for Plant response rating, Foxtail, Giant: scale 0 to 100, 0 no effect, 100 complete control
Summary of the method: as §1

[18] = system: velvetleaf (Abutilon theophrasti); conditions: Postemergence; for Velvetleaf plant response rating: scale 0 to 100 (0 no effect, 100 complete control); for Plant response rating, Velvetleaf: scale 0 to 100, 0 no effect, 100 complete control
Summary of the method: as §1

Compound: FC(Cl)c1cc(-c2ccccc2Oc2ncc(Cl)cn2)no1 (centres unmarked) [Compound 116]
- Galium plant response rating ([1]; 16 g ai/ha): 60
- Galium plant response rating ([1]; 31 g ai/ha): 60
- Plant response rating, Galium ([1]; 62 g ai/ha): 70
- Plant response rating, Galium ([1]; 125 g ai/ha): 90
- Oilseed Rape plant response rating ([2]; 16 g ai/ha): 50
- Oilseed Rape plant response rating ([2]; 31 g ai/ha): 10
- Plant response rating, Oilseed Rape ([2]; 62 g ai/ha): 55
- Plant response rating, Oilseed Rape ([2]; 125 g ai/ha): 70
- Waterhemp plant response rating ([3]; 16 g ai/ha): 70
- Waterhemp plant response rating ([3]; 31 g ai/ha): 90
- Plant response rating, Waterhemp ([3]; 62 g ai/ha): 90
- Plant response rating, Waterhemp ([3]; 125 g ai/ha): 100
- Crabgrass, Large plant response rating ([4]; 16 g ai/ha): 5
- Crabgrass, Large plant response rating ([4]; 31 g ai/ha): 5
- Plant response rating, Crabgrass, Large ([4]; 62 g ai/ha): 25
- Plant response rating, Crabgrass, Large ([4]; 125 g ai/ha): 40
- Pigweed plant response rating ([5]; 16 g ai/ha): 75
- Pigweed plant response rating ([5]; 31 g ai/ha): 75
- Plant response rating, Pigweed ([5]; 62 g ai/ha): 90
- Plant response rating, Pigweed ([5]; 125 g ai/ha): 90
- Morningglory plant response rating ([6]; 16 g ai/ha): 15
- Morningglory plant response rating ([6]; 31 g ai/ha): 10
- Plant response rating, Morningglory ([6]; 62 g ai/ha): 10
- Plant response rating, Morningglory ([6]; 125 g ai/ha): 30
- Nutsedge, Yellow plant response rating ([7]; 16 g ai/ha): 5
- Nutsedge, Yellow plant response rating ([7]; 31 g ai/ha): 5
- Plant response rating, Nutsedge, Yellow ([7]; 62 g ai/ha): 10
- Plant response rating, Nutsedge, Yellow ([7]; 125 g ai/ha): 25
- Ragweed plant response rating ([8]; 16 g ai/ha): 40
- Ragweed plant response rating ([8]; 31 g ai/ha): 35
- Plant response rating, Ragweed ([8]; 62 g ai/ha): 60
- Plant response rating, Ragweed ([8]; 125 g ai/ha): 75
- Wheat plant response rating ([9]; 16 g ai/ha): 70
- Wheat plant response rating ([9]; 31 g ai/ha): 0
- Plant response rating, Wheat ([9]; 62 g ai/ha): 5
- Plant response rating, Wheat ([9]; 125 g ai/ha): 5
- Corn plant response rating ([10]; 16 g ai/ha): 5
- Corn plant response rating ([10]; 31 g ai/ha): 10
- Plant response rating, Corn ([10]; 62 g ai/ha): 5
- Plant response rating, Corn ([10]; 125 g ai/ha): 10
- Lambsquarters plant response rating ([11]; 16 g ai/ha): 40
- Lambsquarters plant response rating ([11]; 31 g ai/ha): 60
- Plant response rating, Lambsquarters ([11]; 62 g ai/ha): 80
- Plant response rating, Lambsquarters ([11]; 125 g ai/ha): 100
- Johnsongrass plant response rating ([12]; 16 g ai/ha): 10
- Johnsongrass plant response rating ([12]; 31 g ai/ha): 20
- Plant response rating, Johnsongrass ([12]; 62 g ai/ha, scale 0 to 100, 0 no effect, 100 complete control): 20
- Soybean plant response rating ([13]; 16 g ai/ha): 40
- Soybean plant response rating ([13]; 31 g ai/ha): 55
- Plant response rating, Soybean ([13]; 62 g ai/ha): 30
- Plant response rating, Soybean ([13]; 125 g ai/ha): 95
- Barnyardgrass plant response rating ([14]; 16 g ai/ha): 5
- Barnyardgrass plant response rating ([14]; 31 g ai/ha): 5
- Plant response rating, Barnyardgrass ([14]; 62 g ai/ha): 20
- Plant response rating, Barnyardgrass ([14]; 125 g ai/ha): 30
- Ryegrass, Italian plant response rating ([15]; 16 g ai/ha): 0
- Ryegrass, Italian plant response rating ([15]; 31 g ai/ha): 0
- Plant response rating, Ryegrass, Italian ([15]; 62 g ai/ha): 5
- Plant response rating, Ryegrass, Italian ([15]; 125 g ai/ha): 10
- Blackgrass plant response rating ([16]; 16 g ai/ha): 0
- Blackgrass plant response rating ([16]; 31 g ai/ha): 5
- Plant response rating, Blackgrass ([16]; 62 g ai/ha): 5
- Plant response rating, Blackgrass ([16]; 125 g ai/ha): 35
- Foxtail, Giant plant response rating ([17]; 16 g ai/ha): 5
- Foxtail, Giant plant response rating ([17]; 31 g ai/ha): 5
- Plant response rating, Foxtail, Giant ([17]; 62 g ai/ha): 10
- Plant response rating, Foxtail, Giant ([17]; 125 g ai/ha): 60
- Velvetleaf plant response rating ([18]; 16 g ai/ha): 55
- Velvetleaf plant response rating ([18]; 31 g ai/ha): 65
- Plant response rating, Velvetleaf ([18]; 62 g ai/ha): 70
- Plant response rating, Velvetleaf ([18]; 125 g ai/ha): 75
